Patent publication US20230218614A1, “COMPOUND FOR THE TREATMENT OF C[…]” (METRIOPHARM AG, priority 2020, published 2023)

Columns and labels:
Vero B4 cells = details: non-infected Vero B4 cells, antivirally effective concentrations, observation period of 3 days
Description: Herein viable cells with an intact mitochondrial succinate-tetrazolium dehydrogenase system effect an enzymatic conversion of the feebly red tetrazolium salt WST-1 (4-[3-(4-iodophenyl)-2-(4-nitrophenyl)-2H-5-tetrazolio]-1,3 benzene disulfonate) into dark red formazan. This color change can be measured photometrically in a spectrophotometer. Thus, the WST assay is a very sensitive method for measuring the toxicity of substances on the cell metabolism. The value for untreated cells was set to 100%.
The value for untreated cells was set to 100%.

3-nitrotyrosine = details: ex vivo lung exposed to cigarette smoke; cited from earlier work

## Nc1cccc2c(=O)[nH][nH]c(=O)c12.[Na] [5-amino-2,3-dihydro-1,4-phthalazinedione sodium salt]
Vero B4 cells
  toxic effect (cell viability, WST assay): does not display any significant toxic effect
3-nitrotyrosine
  3-nitrotyrosine: nearly complete reduction
SARS-CoV-2
  SARS-CoV-2 nucleocapsid protein (Western Blot bands): clear reduction
  generation of SARS-CoV-2 proteins (densitometric evaluation of nucleocapsid): inhibited dose-dependently
